Data taken from patent publication EP1420018A1, “Pyrido[1,2-a]benzimidazole derivatives useful in treating central nervous system disorders” (Ortho-McNeil Pharmaceutical, Inc., priority 1996, dated 1998).
Read-outs that look alike come from different tables or passages of the source.

Experiments:
[1] = test system: metrazol-induced convulsions; assay: Suppression of Metrazol-Induced Convulsions in Adult Male Mice; format: in vivo; conditions: mouse; for ED50: Mus musculus, ip
[2] = test system: Anxiety in the Adult Male Rat; assay: Suppression of Anxiety in the Adult Male Rat (rat conflict test); format: in vivo, rats; conditions: rat; for minimal effective dose: Rattus norvegicus
Method in brief: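 Male rats, 48 h water- and 24 h food-deprived, trained with 200 unpunished licks, tested at expected peak drug activity. Every 20th lick punished by 0.2-s shock over a 3-min session; increase in median shocks versus concurrent vehicle assessed by one-tailed Mann-Whitney test (p<0.05), validated with a positive-control anxiolytic.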

[3] = test system: metrazol-induced convulsions; assay: Suppression of Metrazol-Induced Convulsions in Adult Male Mice; format: in vivo; conditions: mouse; for ED50: Mus musculus, po
[4] = target: benzodiazepine site of the GABA-A receptor; assay: Benzodiazepine Receptor Binding Assay (inhibition of 3H-flunitrazepam binding); conditions: read-out: GABAA Receptor Binding IC50
[5] = po, po, read-out: Rat Conflict (MED, mg/kg) po
[6] = ip, ip, read-out: Rat Conflict (MED, mg/kg) ip

SMILES	IC50 [4]	ED50 [1]	minimal effective dose [2, 5]	ED50 [3]	Mouse Metrazol (ED50, mg/kg) ip [1]	Rat Conflict (MED, mg/kg) po ([2]; po)	Mouse Metrazol (ED50, mg/kg) po [3]	minimal effective dose [2, 6]
COCCN1C2=C(C(=O)Nc3ccccc3F)C(=O)CCN2c2ccccc21 [Compound 153]	1.3 nM	< 1 mg/kg	≤ 1 mg/kg	1 mg/kg	–	–	–	–
CCOC(CCN1C2=C(C(=O)Nc3ccccc3F)C(=O)CCN2c2ccc(F)cc21)OCC [Compound 154]	6.98 nM	< 1 mg/kg	3 mg/kg	~3 mg/kg	–	–	–	–
COCCN1C2=C(C(=O)Nc3nccs3)C(=O)CCN2c2ccc(F)cc21 [Compound 155]	6.13 nM	–	–	–	<1 mg/kg	3 mg/kg	ca. 1.5 mg/kg	–
COCCN1C2=C(C(=O)Nc3ccc(Cl)cc3)C(=O)CCN2c2ccccc21 [Compound 156]	16 nM	< 1 mg/kg	1 mg/kg	~2 mg/kg	–	–	–	–
CC1(C)OCC(CN2C3=C(C(=O)Nc4ccccc4F)C(=O)CCN3c3ccc(F)cc32)O1 (stereo not shown) [Compound 164]	2.75 nM	0.1 mg/kg	10 mg/kg	1 mg/kg	–	–	–	< 10 mg/kg
O=C1CCN2C(=C1C(=O)Nc1cccnc1)N(CCOCc1ccccc1)c1cc(F)ccc12 [Compound 165]	39.2 nM	3 mg/kg	–	> 30 mg/kg	–	–	–	> 7 mg/kg
O=C1CCN2C(=C1C(=O)Nc1ccccc1F)N(CCCOCc1ccccc1)c1cc(F)ccc12 [Compound 170]	0.21 nM	< 1 mg/kg	> 10 mg/kg	< 30 mg/kg	–	–	–	< 10 mg/kg
O=C1CCN2C(=C1C(=O)Nc1ccccc1F)N(CCOCc1ccccc1)c1cc(F)ccc12 [Compound 171, 7-Fluoro-1,2-dihydro-5-[2-(benzyloxy)ethyl]-3-oxo-N-(2-fluorophenyl)pyrido[1,2-a]benzimidazole-4-carboxamide]	1.5 nM	0.1 mg/kg	10 mg/kg	1 mg/kg	–	–	–	10 mg/kg
O=C1CCN2C(=C1C(=O)Nc1ccccc1F)N(CC1CCOC1)c1cc(F)ccc12 (stereo not shown) [Compound 174]	2.28 nM	< 1 mg/kg	3 mg/kg	< 3 mg/kg	–	–	–	–
O=C1CCN2C(=C1C(=O)Nc1ccccc1F)N(CC1CCCO1)c1cc(F)ccc12 (stereo not shown) [Compound 175]	1.5 nM	< 1 mg/kg	> 10 mg/kg	2 mg/kg	–	–	–	–
CC(C)(C)OC(=O)CN1C2=C(C(=O)Nc3ccccc3F)C(=O)CCN2c2ccc(F)cc21 [Compound 176]	56.2 nM	> 1 mg/kg	> 10 mg/kg	> 30 mg/kg	–	–	–	–
O=C(Nc1c(F)cccc1F)OCCN1C2=C(C(=O)Nc3c(F)cccc3F)C(=O)CCN2c2ccc(F)cc21 [Compound 179]	7.65 nM	10 mg/kg	–	> 30 mg/kg	–	–	–	> 10 mg/kg
CC1(CN2C3=C(C(=O)Nc4ccccc4F)C(=O)CCN3c3ccc(F)cc32)COC1 [Compound 180]	18 nM	1 mg/kg	> 10 mg/kg	> 30 mg/kg	–	–	–	–

More lines, main results first:

IC50 [4]	SMILES	ED50 [1]	minimal effective dose [2, 5]	ED50 [3]	Mouse Metrazol (ED50, mg/kg) ip [1]	Rat Conflict (MED, mg/kg) po ([2]; po)	Mouse Metrazol (ED50, mg/kg) po [3]	minimal effective dose [2, 6]
0.48 nM	CCOCN1C2=C(C(=O)Nc3ccccc3F)C(=O)CCN2c2ccc(Cl)cc21 [Compound 157]	< 1 mg/kg	> 10 mg/kg	~2 mg/kg	–	–	–	–
0.15 nM	COCN1C2=C(C(=O)Nc3ccccc3F)C(=O)CCN2c2ccc(F)cc21 [Compound 158]	0.01 mg/kg	3 mg/kg	0.1 mg/kg	–	–	–	< 10 mg/kg
0.8 nM	COCCOCN1C2=C(C(=O)Nc3ccccc3F)C(=O)CCN2c2ccc(F)cc21 [Compound 159]	0.003 mg/kg	3 mg/kg	0.1 mg/kg	–	–	–	< 10 mg/kg
0.61 nM	COCCN1C2=C(C(=O)Nc3ccccc3F)C(=O)CCN2c2ccc(F)cc21 [Compound 163]	0.01 mg/kg	0.1 mg/kg	0.2 mg/kg	–	–	–	< 10 mg/kg
0.26 nM	O=C1CCN2C(=C1C(=O)Nc1ccccc1F)N(COCc1ccccc1)c1cc(F)ccc12 [Compound 167]	< 1 mg/kg	> 10 mg/kg	< 30 mg/kg	–	–	–	> 10 mg/kg
1.17 nM	O=C1CCN2C(=C1C(=O)Nc1ccccc1F)N(CCO)c1cc(F)ccc12 [Compound 168, 7-Fluoro-1,2-dihydro-5-(2-hydroxyethyl)-3-oxo-N-(2-fluorophenyl)pyrido[1,2-a]benzimidazole-4-carboxamide]	< 1 mg/kg	> 10 mg/kg	< 30 mg/kg	–	–	–	10 mg/kg
1.08 nM	O=C1CCN2C(=C1C(=O)Nc1ccccc1F)N(CCCO)c1cc(F)ccc12 [Compound 169]	0.1 mg/kg	10 mg/kg	0.5 mg/kg	–	–	–	10 mg/kg
0.14 nM	CCOCN1C2=C(C(=O)Nc3ccccc3F)C(=O)CCN2c2ccc(F)cc21 [Compound 172]	0.01 mg/kg	0.3 mg/kg	0.1 mg/kg	–	–	–	≤ 10 mg/kg
0.65 nM	CCOCN1C2=C(C(=O)Nc3c(F)cccc3F)C(=O)CCN2c2ccc(F)cc21 [Compound 173]	1 mg/kg	> 10 mg/kg	3 mg/kg	–	–	–	> 10 mg/kg
54.8 nM	O=C(O)CN1C2=C(C(=O)Nc3ccccc3F)C(=O)CCN2c2ccc(F)cc21 [Compound 177]	> 1 mg/kg	> 10 mg/kg	> 30 mg/kg	–	–	–	–
